# Laboratory results published in patent publication US4822818A, “Bicycle compounds, their production and use” (Takeda Chemical Industries, Ltd., priority 1980, dated 1989).
# Counter-ions that a name gives are not always drawn.
# Experiments:
# Angiotensin I = assay: Effect of present compounds against hypertensive activity of angiotensin I in rats, oral administration; assay type: in vivo, Male rats (Sprague-Dawley); details: rat, oral 13.8 μM/kg, angiotensin I 300 ng/kg i.v., corrected by angiotensin II reaction; for Percent Inhibition against Hypertensive Reaction by Angiotensin I, After 20 min.: 20 min after administration; for Percent Inhibition against Hypertensive Reaction by Angiotensin I, After 60 min.: 60 min after administration; for Percent Inhibition against Hypertensive Reaction by Angiotensin I, After 120 min.: 120 min after administration
# Method: Effect of Present Compounds against Hypertensive Activity of Angiotensin I
# Male rats (Sprague-Dawley) weighing 250 g to 350 g which were fed under free access to drinking water and feeds were used as experimental animals. The rats were anesthetized with intraperitoneal administration of pentobarbital sodium (50 mg/kg) on the day before the test day and a polyethylene tube was inserted into each of the femoral artery for measurement of blood pressure and the femoral vein for injection of angiotensin I and II, and then the tubes were fixed.
# On the test day, an average blood pressure in the control phase was recorded on an electric hemodynamometer (MP-4T model manufactured by Nippon Koden, Japan) and thereafter angiotensin I and then angiotensin II were injected through the femoral vein at a dose of 300 ng/kg and 100 ng/kg respectively, to measure the hypertensive activity. Then, 13.8 μM/kg of the compound of this invention was administered orally as an aqueous solution or an aqueous gum arabic suspension, and 20, 60 and 120 minutes after the administration, angiotensin I and II were injected repeatedly to trace hypertensive reactions. In calculating the percent inhibition to the hypertensive activity of angiotensin I, the percent inhibitory value was corrected based on the variation with time in the hypertensive reaction by angiotensin II.
# [1] = target: T1, Angiotensin I Converting Enzyme (ACE) (Oryctolagus cuniculus, UniProt P12822); assay: Inhibition of Angiotensin I Converting Enzyme (ACE), substrate hippuryl-L-histidyl-L-leucine (HHL), hippuric acid produced; assay type: biochemical; details: pH 8.3, 37° C., one hour, read-out: Inhibitory Activity on ACE; for inhibition at 1 µM: Concentration 1 μM; for inhibition at 10 µM: Concentration 10 μM
# T1 sequence (P12822 34-1310): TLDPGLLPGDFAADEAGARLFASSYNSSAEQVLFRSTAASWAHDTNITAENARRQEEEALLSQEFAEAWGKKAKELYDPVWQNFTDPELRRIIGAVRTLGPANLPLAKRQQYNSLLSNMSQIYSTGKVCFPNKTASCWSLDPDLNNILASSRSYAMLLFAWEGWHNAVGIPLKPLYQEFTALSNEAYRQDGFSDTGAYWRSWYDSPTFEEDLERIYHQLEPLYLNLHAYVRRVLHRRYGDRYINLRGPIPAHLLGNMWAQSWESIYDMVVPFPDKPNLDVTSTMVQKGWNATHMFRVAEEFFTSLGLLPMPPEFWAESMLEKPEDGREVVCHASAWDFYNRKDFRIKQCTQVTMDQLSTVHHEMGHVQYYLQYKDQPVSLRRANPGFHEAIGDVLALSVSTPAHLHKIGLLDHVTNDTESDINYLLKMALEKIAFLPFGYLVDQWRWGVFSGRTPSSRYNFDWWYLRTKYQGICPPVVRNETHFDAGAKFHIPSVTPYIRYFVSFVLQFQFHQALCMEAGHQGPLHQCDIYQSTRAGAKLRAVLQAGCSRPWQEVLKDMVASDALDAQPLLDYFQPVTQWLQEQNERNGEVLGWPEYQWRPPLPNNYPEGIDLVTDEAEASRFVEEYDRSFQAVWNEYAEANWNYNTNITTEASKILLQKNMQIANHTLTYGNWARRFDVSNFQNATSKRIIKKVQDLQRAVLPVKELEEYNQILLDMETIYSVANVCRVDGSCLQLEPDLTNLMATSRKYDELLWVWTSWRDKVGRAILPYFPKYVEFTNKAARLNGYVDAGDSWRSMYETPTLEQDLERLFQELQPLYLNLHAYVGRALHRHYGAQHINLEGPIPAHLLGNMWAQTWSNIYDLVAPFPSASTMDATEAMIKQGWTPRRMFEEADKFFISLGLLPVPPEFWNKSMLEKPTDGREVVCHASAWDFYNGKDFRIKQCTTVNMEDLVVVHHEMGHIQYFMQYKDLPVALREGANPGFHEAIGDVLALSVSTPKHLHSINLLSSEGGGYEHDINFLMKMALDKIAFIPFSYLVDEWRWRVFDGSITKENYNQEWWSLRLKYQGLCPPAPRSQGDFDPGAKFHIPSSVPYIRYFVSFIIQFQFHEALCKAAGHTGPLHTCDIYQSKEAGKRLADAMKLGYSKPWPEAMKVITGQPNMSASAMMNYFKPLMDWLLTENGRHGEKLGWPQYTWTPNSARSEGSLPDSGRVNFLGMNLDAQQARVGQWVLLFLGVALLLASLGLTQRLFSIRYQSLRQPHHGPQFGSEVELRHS
# Method: Inhibitions of Angiotensin I Converting Enzyme (ACE) by the Compounds of this Invention. The experiment was conducted in accordance with a modification of the method described by Cushman et al. [Biochemical Pharmacology, Vol. 20, 1637(1971)]. That is, using hippuryl-L-histidyl-L-leucine(HHL) as the substrate, the ACE inhibitory activity was determined in terms of percent inhibition on the amount of hippuric acid produced by ACE when the present compound was added. […] In this experiment, a potassium phosphate buffer solution containing dimethyl sulfoxide at a concentration equal to that of the test solution was used as a control. After incubating the solution at 37° C. for one hour, 150 μl of 1N hydrochloric acid was added to the solution to terminate the reaction. After 1 ml of ethyl acetate was added, the solution was centrifuged at 3000 r.p.m. for 10 minutes. A 0.5 ml aliquot was separated from the ethyl acetate layer and dried at a temperature below 50° C. under nitrogen gas streams. The residue was mixed with 5 ml of 1M aqueous sodium chloride and the mixture was subjected to colorimetry at a wavelength of 228 nm.
SMILES,inhibition at 1 µM [1] [%],inhibition at 10 µM [1] [%],"Percent Inhibition against Hypertensive Reaction by Angiotensin I, After 20 min. (Angiotensin I) [%]","Percent Inhibition against Hypertensive Reaction by Angiotensin I, After 60 min. (Angiotensin I) [%]","Percent Inhibition against Hypertensive Reaction by Angiotensin I, After 120 min. (Angiotensin I) [%]"
"CC(C)OC(=O)C(CCc1ccccc1)N[C@@H](C)C(=O)N(CC(=O)O)C1Cc2ccccc2C1.Cl (stereo partly drawn) [Example 9, N-(1-isopropoxycarbonyl-3-phenylpropyl)-L-alanyl-N-(indan-2-yl)glycine hydrochloride]",72,95,88,71,51
"CCOC(=O)[C@H](CCc1ccc(OC)c(OC)c1)N[C@@H](C)C(=O)N(CC(=O)O)C1Cc2ccccc2C1.Cl [Example 15, N-[1-(S)-ethoxycarbonyl-3-(3,4-dimethoxyphenyl)propyl]-L-alanyl-N-(indan-2-yl)glycine hydrochloride]",–,–,84,80,65
"CCCCOC(=O)C(CCc1ccccc1)N[C@@H](C)C(=O)N(CC(=O)O)C1Cc2ccccc2C1 (stereo partly drawn) [Example 8, N-(1-butoxycarbonyl-3-phenylpropyl)-L-alanyl-N-(indan-2-yl)glycine hydrochloride]",69,99,–,–,–
"C[C@H](N[C@@H](CCc1ccccc1)C(=O)O)C(=O)N(CC(=O)O)C1Cc2ccccc2C1 [Example 19, N-(1-(S)-carboxyl-3-phenylpropyl)-L-alanyl-N-(indan-2-yl)glycine]",95,98,–,–,–

# Now from value to compound, other results behind:
inhibition at 1 µM [1] [%],inhibition at 10 µM [1] [%],SMILES,"Percent Inhibition against Hypertensive Reaction by Angiotensin I, After 20 min. (Angiotensin I) [%]","Percent Inhibition against Hypertensive Reaction by Angiotensin I, After 60 min. (Angiotensin I) [%]","Percent Inhibition against Hypertensive Reaction by Angiotensin I, After 120 min. (Angiotensin I) [%]"
87,97,"CCOC(=O)C(CCc1ccccc1)N[C@@H](C)C(=O)N(CC(=O)O)C1Cc2ccccc2C1.Cl (stereo partly drawn) [Example 1, N-(1-ethoxycarbonyl-3-phenylpropyl)-L-alanyl-N-(indan-2-yl)glycine hydrochloride]",93,88,77
91,97,"CCCOC(=O)C(CCc1ccccc1)N[C@@H](C)C(=O)N(CC(=O)O)C1Cc2ccccc2C1.Cl (stereo partly drawn) [Example 7, N-(1-propoxycarbonyl-3-phenylpropyl)-L-alanyl-N-(indan-2-yl)glycine hydrochloride]",84,91,96
